Experiments:
PPARγ [1] = assay: PPARγ classifier value from expression of the 303-probe classifier gene population in 3T3L1 adipocyte cell line; assay type: cell-based, mouse; conditions: Phase 3, high dosage (30×EC50), mean over 303 probes of logRatio divided by template logRatio, template = average of two full agonists (Group 1)
Method: The overall experiment was conducted in three phases (i.e., in three separate experiments conducted at three different times) as shown in Table 11 below. Three replicates were done for each of the tested compounds in each phase of the experiment.
The other PPARγ agonist, and partial agonist, compounds were used in testing the classifier population of genes. […] The PPARα agonist was included as a control.
The three replicate gene expression profiles within each phase of the experiment were first combined based on the error-weighted average. Expression profiles of two PPARγ full agonists, and four PPARγ partial agonists (in Phase 1) were chosen for classifier training, and were divided into the following two groups:
Group 1: two PPARγ full agonists (5-(4-{2-[methyl(pyridin-2-yl)amino]ethoxy} benzyl)-1,3-thiazolidine-2,4-dione and 5-{4-[2-hydroxy-2-(5-methyl-2-phenyl-1,3-oxazol-4-yl)ethoxy]benzyl}-1,3-thiazolidine-2,4-dione)
The Matlab function ANOVA1 (one-way analysis of variance) was used to calculate the pvalue (hereafter referred to as the ANOVA-pvalue) for the null hypothesis that the means of Group 1 and Group 2 are equal.

PPARγ [2] = assay: PPARγ efficacy score from expression of the 22-probe efficacy-related gene population in cultured 3T3L1 adipocytes; assay type: cell-based, mouse; conditions: mean over 22 probes of logRatio divided by template logRatio, template = average of Rosiglitazone and {2-[2-(4-phenoxy-2-propylphenoxy)ethyl]-1H-indol-5-yl}acetic acid
Method: Twenty four hours after the cells were contacted with one or other of the foregoing agents the cells were harvested and RNA extracted therefrom.
Thus, an efficacy value a PPARγ agonist, or partial agonist, was calculated in the following manner. […] This mean value was the PPARγ efficacy value for the PPARγ agonist, or partial agonist.
A chi-square fitting was also used to calculate the efficacy value for each tested PPARγ agonist, or partial agonist. The chi-square fitting formula used was: [formula]
Where Ri, σRi stand for the logRatio and error for logRatio of the full template. Xi and σXi stand for the logRatio and error for logRatio of the testing compound.
A PPARα agonist was included as a control.

| SMILES | Classifier Value (PPARγ [1]) | Efficacy Score (PPARγ [2]) |
| --- | --- | --- |
| CN(CCOc1ccc(CC2SC(=O)NC2=O)cc1)c1ccccn1 (stereo not shown) [Rosiglitazone, 5-(4-{2-[methyl(pyridin-2-yl)amino]ethoxy}benzyl)-1,3-thiazolidine-2,4-dione] | 0.850 | 0.967 |
| CCCc1cc(Oc2ccccc2)ccc1OCCc1cc2cc(CC(=O)O)ccc2[nH]1 [Agonist 1, {2-[2-(4-phenoxy-2-propylphenoxy)ethyl]-1H-indol-5-yl}acetic acid] | 0.881 | 1.033 |

Reference: patent publication US20050084872A1 (priority 2003, published 2005)
